The values below come from ChEMBL document CHEMBL3400123, “Discovery of 1,3-dihydro-2,1,3-benzothiadiazole 2,2-dioxide analogs as new RORC modulators” (Bioorg Med Chem Lett, 2015).

This data set is described as follows: Solubility in pH 6.8 buffer by high throughput solubility assay. It is filed as physicochemical.

SMILES strings stand for the structures. Converted amounts (≈) assume the structure as drawn.

For `CCC(CC)c1ccc(CN2c3ccccc3N(CCCC(=O)N3CCCC3)S2(=O)=O)cc1`, the concentration in solution (solubility) was 0.6 µg/mL (≈ 1.28 µM).
`O=C(CCCN1c2ccccc2N(Cc2ccc(C(O)(C(F)(F)F)C(F)(F)F)cc2)S1(=O)=O)N1CCCC1` showed a solubility of 0.45 µg/mL (≈ 0.796 µM). The solubility values of the last two molecules are within 1.5-fold of each other.
Molecule `O=C(CCCN1c2ccccc2N(Cc2ccc(C(O)C(F)(F)F)cc2)S1(=O)=O)N1CCCC1` (stereo not drawn) displayed a solubility of 5.7 µg/mL (≈ 11.5 µM).

By solubility is commonly meant how much of the substance goes into solution per volume. A low value points to a poorly soluble substance.
